From ChEMBL document CHEMBL1201862, “PubChem BioAssay data set” (2004)
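Where inhibition never reached the appropriate level, the endpoint shown equals the highest concentration tested. Otherwise, values were interpolated linearly from a five-concentration, 48-hour dose response in 96-well plates. At the GI50, growth is halved.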 Calls of active or inactive are those of the source. Rule as the data show it: active = GI50 up to about 1.1 µM and inactive = higher.

Legend:
Experiment in all cases: inhibition of tumour cell growth, NCI panel, 48 h
[1] = system: Malme-3M
[2] = system: TK-10
[3] = system: HOP-92
[4] = system: OVCAR-8
[5] = system: NCI-H23
[6] = system: RPMI-8226
[7] = system: K562
[8] = system: OVCAR-5
[9] = system: SK-OV-3
[10] = system: SK-MEL-28
[11] = system: HL-60
[12] = system: U-251
[13] = system: EKVX
[14] = system: HOP-62
[15] = system: LOX IMVI
[16] = system: NCI-H522
[17] = system: ACHN
[18] = system: SK-MEL-2
[19] = system: OVCAR-4
[20] = system: IGROV-1

CC1CN(c2ccc(Cl)cc2)CC(C)(C)OC(=O)O1 (stereo not given)
GI50 [1]: > 100 µM (inactive)
GI50 [2]: > 100 µM (inactive)
GI50 [3]: > 100 µM (inactive)
GI50 [4]: > 100 µM (inactive)
GI50 [5]: > 100 µM (inactive)
GI50 [6]: > 100 µM (inactive)
GI50 [7]: > 100 µM (inactive)
GI50 [8]: > 100 µM (inactive)
GI50 [9]: > 100 µM (inactive)
GI50 [10]: > 100 µM (inactive)
GI50 [11]: > 100 µM (inactive)
GI50 [12]: > 100 µM (inactive)
GI50 [13]: > 100 µM (inactive)
GI50 [14]: > 100 µM (inactive)
GI50 [15]: > 100 µM (inactive)
GI50 [16]: > 100 µM (inactive)
GI50 [17]: > 100 µM (inactive)
GI50 [18]: > 100 µM (inactive)
GI50 [19]: > 100 µM (inactive)
GI50 [20]: > 100 µM (inactive)

Cc1cn(Cc2ccccc2CCO)c(=S)[nH]c1=O
GI50 [1]: > 100 µM (inactive)
GI50 [2]: > 100 µM (inactive)
GI50 [3]: > 100 µM (inactive)
GI50 [4]: > 100 µM (inactive)
GI50 [5]: > 100 µM (inactive)
GI50 [6]: > 100 µM (inactive)
GI50 [7]: > 100 µM (inactive)
GI50 [8]: > 100 µM (inactive)
GI50 [9]: > 100 µM (inactive)
GI50 [10]: > 100 µM (inactive)
GI50 [11]: > 100 µM (inactive)
GI50 [12]: > 100 µM (inactive)
GI50 [13]: > 100 µM (inactive)
GI50 [14]: > 100 µM (inactive)
GI50 [15]: > 100 µM (inactive)
GI50 [16]: > 100 µM (inactive)
GI50 [17]: > 100 µM (inactive)
GI50 [18]: > 100 µM (inactive)
GI50 [19]: > 100 µM (inactive)
GI50 [20]: > 100 µM (inactive)

Cc1ccc(Nc2ncnc3sc(SCc4ccccc4)nc23)cc1
GI50 [1]: > 100 µM (inactive)
GI50 [2]: 52.4 µM (inactive)
GI50 [3]: 31.3 µM (inactive)
GI50 [4]: > 100 µM (inactive)
GI50 [5]: > 100 µM (inactive)
GI50 [6]: 48 µM (inactive)
GI50 [7]: > 100 µM (inactive)
GI50 [8]: 43.7 µM (inactive)
GI50 [9]: > 100 µM (inactive)
GI50 [10]: > 100 µM (inactive)
GI50 [11]: > 100 µM (inactive)
GI50 [12]: > 100 µM (inactive)
GI50 [13]: > 100 µM (inactive)
GI50 [14]: > 100 µM (inactive)
GI50 [15]: > 100 µM (inactive)
GI50 [16]: > 100 µM (inactive)
GI50 [17]: 32 µM (inactive)
GI50 [18]: > 100 µM (inactive)
GI50 [19]: > 100 µM (inactive)
GI50 [20]: > 100 µM (inactive)

Cc1ccc(NC(=O)CCc2nnc3s/c(=C\C=C\c4ccccc4)c(=O)n23)cc1
GI50 [1]: > 100 µM (inactive)
GI50 [2]: > 100 µM (inactive)
GI50 [3]: > 83 µM (inactive)
GI50 [4]: 31.3 µM (inactive)
GI50 [5]: > 100 µM (inactive)
GI50 [6]: 46.9 µM (inactive)
GI50 [7]: > 100 µM (inactive)
GI50 [8]: > 100 µM (inactive)
GI50 [9]: > 100 µM (inactive)
GI50 [10]: > 100 µM (inactive)
GI50 [11]: 56 µM (inactive)
GI50 [12]: 53.3 µM (inactive)
GI50 [13]: > 100 µM (inactive)
GI50 [14]: > 95.5 µM (inactive)
GI50 [15]: 27 µM (inactive)
GI50 [16]: 37.8 µM (inactive)
GI50 [17]: > 100 µM (inactive)
GI50 [18]: 68.7 µM (inactive)
GI50 [19]: > 56.2 µM (inactive)
GI50 [20]: > 100 µM (inactive)

COC(=O)/C=C\C(C#N)(C#N)/N=C/c1ccc(Br)s1
GI50 [1]: 1.77 µM (inactive)
GI50 [2]: 2.38 µM (inactive)
GI50 [3]: 1.93 µM (inactive)
GI50 [4]: 3.98 µM (inactive)
GI50 [5]: 9.2 µM (inactive)
GI50 [6]: 2.32 µM (inactive)
GI50 [7]: 4.3 µM (inactive)
GI50 [8]: 9.64 µM (inactive)
GI50 [9]: 19.2 µM (inactive)
GI50 [10]: 16.1 µM (inactive)
GI50 [11]: 1.85 µM (inactive)
GI50 [12]: 16 µM (inactive)
GI50 [13]: 12.2 µM (inactive)
GI50 [14]: 17.6 µM (inactive)
GI50 [15]: 2.16 µM (inactive)
GI50 [16]: 1.07 µM (active)
GI50 [17]: 2.29 µM (inactive)
GI50 [18]: 17.3 µM (inactive)
GI50 [19]: 6.61 µM (inactive)
GI50 [20]: 14.9 µM (inactive)

CCOC(=O)/C(=C/c1ccc(C(F)(F)F)cc1)N(CC)CC
GI50 [1]: 57.5 µM (inactive)
GI50 [2]: > 100 µM (inactive)
GI50 [3]: 17.5 µM (inactive)
GI50 [4]: 56 µM (inactive)
GI50 [5]: 37.3 µM (inactive)
GI50 [6]: > 100 µM (inactive)
GI50 [7]: > 100 µM (inactive)
GI50 [8]: 87.1 µM (inactive)
GI50 [9]: 66.4 µM (inactive)
GI50 [10]: > 100 µM (inactive)
GI50 [11]: > 100 µM (inactive)
GI50 [12]: 41 µM (inactive)
GI50 [13]: > 100 µM (inactive)
GI50 [14]: 42.6 µM (inactive)
GI50 [15]: > 100 µM (inactive)
GI50 [16]: 31.6 µM (inactive)
GI50 [17]: 42.1 µM (inactive)
GI50 [18]: 25.7 µM (inactive)
GI50 [19]: 78.9 µM (inactive)
GI50 [20]: 47.8 µM (inactive)

CC12c3ccccc3C(OC=O)(c3ccccc31)C1(C)c3ccccc3C2(OC=O)c2ccccc21
GI50 [1]: > 100 µM (inactive)
GI50 [2]: > 100 µM (inactive)
GI50 [3]: > 100 µM (inactive)
GI50 [4]: > 100 µM (inactive)
GI50 [5]: > 100 µM (inactive)
GI50 [6]: > 100 µM (inactive)
GI50 [7]: > 100 µM (inactive)
GI50 [8]: > 100 µM (inactive)
GI50 [9]: > 100 µM (inactive)
GI50 [10]: > 100 µM (inactive)
GI50 [11]: > 100 µM (inactive)
GI50 [12]: 95.5 µM (inactive)
GI50 [13]: > 100 µM (inactive)
GI50 [14]: 48.5 µM (inactive)
GI50 [15]: > 100 µM (inactive)
GI50 [16]: > 100 µM (inactive)
GI50 [17]: > 100 µM (inactive)
GI50 [18]: > 100 µM (inactive)
GI50 [19]: > 100 µM (inactive)
GI50 [20]: > 100 µM (inactive)

CC(=O)OCC1OC(N2C(=O)C(=O)c3cc(C)ccc32)C(OC(C)=O)C(OC(C)=O)C1OC(C)=O (stereo not given)
GI50 [1]: > 100 µM (inactive)
GI50 [2]: > 100 µM (inactive)
GI50 [3]: 51.5 µM (inactive)
GI50 [4]: 63.4 µM (inactive)
GI50 [5]: 52.1 µM (inactive)
GI50 [6]: 29.4 µM (inactive)
GI50 [7]: > 100 µM (inactive)
GI50 [8]: > 100 µM (inactive)
GI50 [9]: > 100 µM (inactive)
GI50 [10]: 32.5 µM (inactive)
GI50 [11]: 22.4 µM (inactive)
GI50 [12]: > 100 µM (inactive)
GI50 [13]: > 100 µM (inactive)
GI50 [14]: > 100 µM (inactive)
GI50 [15]: 17.1 µM (inactive)
GI50 [16]: 36.3 µM (inactive)
GI50 [17]: 50.9 µM (inactive)
GI50 [18]: > 100 µM (inactive)
GI50 [19]: > 100 µM (inactive)
GI50 [20]: 46 µM (inactive)

COC(=O)C1CC/C(=N\c2cccc(C(F)(F)F)c2)N1 (stereo not given)
GI50 [1]: > 100 µM (inactive)
GI50 [2]: > 100 µM (inactive)
GI50 [3]: > 100 µM (inactive)
GI50 [4]: > 100 µM (inactive)
GI50 [5]: > 100 µM (inactive)
GI50 [6]: > 100 µM (inactive)
GI50 [7]: > 100 µM (inactive)
GI50 [8]: > 100 µM (inactive)
GI50 [9]: > 100 µM (inactive)
GI50 [10]: > 100 µM (inactive)
GI50 [11]: > 100 µM (inactive)
GI50 [12]: > 100 µM (inactive)
GI50 [13]: > 100 µM (inactive)
GI50 [14]: > 100 µM (inactive)
GI50 [15]: > 100 µM (inactive)
GI50 [16]: > 100 µM (inactive)
GI50 [17]: > 100 µM (inactive)
GI50 [18]: > 100 µM (inactive)
GI50 [19]: > 100 µM (inactive)
GI50 [20]: > 100 µM (inactive)
